This passage reports IC50 and Efficacy results from ChEMBL document CHEMBL1138641, “2-(4-Methoxyphenoxy)-5-nitro-N-(4-sulfamoylphenyl)benzamide activates Kir6.2/SUR1 K(ATP) channels” (Bioorg Med Chem Lett, 2004).

One may read the IC50 as the midpoint of a concentration-inhibition curve.

One assay has as its system HEK293. As to the kind of experiment: Potency by repolarisation of tolbutamide-depolarised membrane potential in HEK 293 cells. The conditions noted are these: Homo sapiens.
The subject of assay [1] is Beta-TC6. As to the kind of experiment: Percent efficacy for inhibition of glucose stimulated insulin release from beta TC6 cells. Type of assay: functional, Mus musculus.
A short description of assay [2]: inhibitory concentration required for repolarization of beta cell membrane potential in presence of 10 mM glucose. Type of assay: functional, Homo sapiens.
Assay [3] relates to Beta-TC6. Kind of assay: Concentration required for inhibition of glucose stimulated insulin release from beta TC6 cells. Type of assay: functional, cell-based, Mus musculus.
Setting [4] is: Mus musculus, Beta-TC6, read-out: IC50.

As to `CC(C)NC1=NS(=O)(=O)c2cc(Cl)ccc2N1`, the concentration for half-maximal inhibition (IC50) came out at 0.8 µM in the assay with HEK293; 0.25 µM in assay [2] (Homo sapiens, read-out: IC50); 0.46 µM in the assay on Beta-TC6 [3] (setting [4]). In the assay with Beta-TC6 [1], this compound returned an Efficacy of 75%.
In the assay on Beta-TC6 [1], `COc1ccc(NC(=O)c2cc([N+](=O)[O-])ccc2Oc2ccc(OC)cc2)cc1` came in with an Efficacy of 73%. For the same compound, the concentration for half-maximal inhibition (IC50) in assay [2] (Homo sapiens, read-out: IC50) came out at 3.4 µM; in the assay with Beta-TC6 [3] (setting [4]), 1.6 µM.
In the case of `COc1ccc(Oc2ccc([N+](=O)[O-])cc2C(=O)Nc2ccccc2S(N)(=O)=O)cc1`, the Efficacy with Beta-TC6 [1] was found to be 33%. Further, the IC50 result in assay [2] is “No significant activity”; in the assay on Beta-TC6 [3] (setting [4]) it was 10.4 µM.
`CCN(C(=O)c1cc([N+](=O)[O-])ccc1Oc1ccc(OC)cc1)c1ccc(Cl)cc1` yielded an Efficacy in the assay on Beta-TC6 [1] of 56%. Besides, the IC50 in assay [2] (Homo sapiens, read-out: IC50) was 8.3 µM; in the assay on Beta-TC6 [3] (setting [4]), 10.4 µM.
As to `COc1ccc(Oc2ccc([N+](=O)[O-])cc2C(=O)Nc2ccc(C(C)=O)cc2)cc1`, the Efficacy in the assay on Beta-TC6 [1] is 75%. In addition, the IC50 was 8.1 µM in assay [2] (Homo sapiens, read-out: IC50) and 1.12 µM with Beta-TC6 [3] (setting [4]).
`COc1ccc(Nc2ccc([N+](=O)[O-])cc2C(=O)Nc2ccc(S(N)(=O)=O)cc2)cc1` had an Efficacy in the assay with Beta-TC6 [1] of 1%. For the same compound, the results for the concentration for half-maximal inhibition (IC50) entry (in assay [2]; in the assay on Beta-TC6 [3] (setting [4])) were “No significant activity” and 26.6 µM, respectively.
Turning to `COc1ccc(NC(=O)c2cc(C#N)ccc2Oc2ccc(OC)cc2)cc1`, the Efficacy in the assay on Beta-TC6 [1] turned out to be 17%. The IC50 in assay [2] (Homo sapiens, read-out: IC50) was 2.5 µM; in the assay on Beta-TC6 [3] (setting [4]), 48.5 µM.
For `COc1ccc(Oc2ccc([N+](=O)[O-])cc2C(=O)Nc2ccc(F)cc2)cc1`, the Efficacy in the assay on Beta-TC6 [1] worked out at 52%. In addition, the 50% inhibitory concentration (IC50) came out at 7.2 µM in assay [2] (Homo sapiens, read-out: IC50) and 5.67 µM in the assay with Beta-TC6 [3] (setting [4]).
Consider `COc1ccc(NC(=O)c2ccccc2Oc2ccccc2)cc1`, for which the IC50 result (in assay [2]; in the assay on Beta-TC6 [3] (beta-tc6)) was “No significant activity” in each case.
Regarding `COc1ccc(Oc2ccc([N+](=O)[O-])cc2C(=O)Nc2cccc(S(N)(=O)=O)c2)cc1`, the Efficacy in the assay with Beta-TC6 [1] was determined as 31%. The IC50 in assay [2] (Homo sapiens, read-out: IC50) came to 9.9 µM; in the assay with Beta-TC6 [3] (setting [4]), 20.5 µM.
As to `COc1ccc(Oc2ccc([N+](=O)[O-])cc2C(=O)Nc2ccc(S(N)(=O)=O)cc2)cc1`, the IC50 is 1.3 µM with HEK293; 1.8 µM in assay [2] (Homo sapiens, read-out: IC50); 0.82 µM in the assay with Beta-TC6 [3] (setting [4]). The compound further showed an Efficacy with Beta-TC6 [1] of 79%.
As to `COc1ccc(NC(=O)c2cc(N)ccc2Oc2ccc(OC)cc2)cc1`, the IC50 entry (in assay [2]; with Beta-TC6 [3] (beta-tc6)) was “No significant activity” throughout.
In the assay with Beta-TC6 [1], `COc1ccc(Oc2ccc([N+](=O)[O-])cc2C(=O)N(C)c2ccc(Cl)cc2)cc1` showed an Efficacy of 33%. Also, the half-inhibitory concentration (IC50) in assay [2] (Homo sapiens, read-out: IC50) was 10.1 µM; with Beta-TC6 [3] (setting [4]) it was 25.7 µM.
Consider `CC1=Nc2ccc(Cl)cc2S(=O)(=O)N1` [DIAZOXIDE], for which the IC50 is 33 µM in the assay with HEK293; 13.7 µM in assay [2] (Homo sapiens, read-out: IC50); 23 µM with Beta-TC6 [3] (setting [4]). The compound further yielded an Efficacy in the assay with Beta-TC6 [1] of 25%.
`CC1(NC2=NS(=O)(=O)c3sc(Cl)cc3N2)CC1` [TIFENAZOXIDE]: the Efficacy in the assay on Beta-TC6 [1] was found to be 73%. For the same compound, the half-inhibitory concentration (IC50) in assay [2] (Homo sapiens, read-out: IC50) was 0.6 µM; with Beta-TC6 [3] (setting [4]) it was 0.25 µM.
